In patent publication US12350249B2, “Efficient anti-bacterial hydroxy acid ester oligomer” (NANJING BIOSERICA ERA BIOLOGICAL TECHNOLOGY CO., LTD., priority 2020, dated 2025):
Values after ≈ are worked out from the molar mass of the structure shown.

Assays:
[1] = system: Escherichia coli ATCC25922; test: Minimum Inhibitory Concentration Test (Nutrition Broth Method), Table 3; format: cell-based
Experimental: (§1) Anti-bacterial tests and c log P theoretical calculation are performed on the products of the embodiment 2 and the embodiment 3, as shown in Table 3. [table]

[2] = system: Escherichia coli ATCC25922; test: Minimum inhibitory concentration MIC (agar method), Table 3; format: cell-based
Experimental: as §1

[3] = system: Escherichia coli ATCC 25922; test: Anti-bacterial experiment, GB/T 20944.3-2008 shake flask method; format: cell-based
Experimental: Adding 10 g of 3-hydroxybutyrate ethyl ester and 0.01 g of zinc acetate (i.e. a mass ratio of 3-hydroxybutyrate ethyl ester is 0.1%) in a three-necked flask with mechanical stirring, a thermometer and a distillation device, wherein a stirring speed is approximately 150 revolutions; under an environment with a trace of nitrogen, increasing a temperature to 150° C. with a speed of 0.5-3° C./min to react for 1 hour, then stopping reaction to obtain a 3-HB oligomer; detecting a degree of polymerization by a mass spectrometry, wherein an anti-bacterial experiment refers to GB/T 20944.3-2008 Textiles-Evaluation for anti-bacterial activity-Part 3: Shake flask method, a strain used is Escherichia coli ATCC 25922.

K. pneumoniae = settings: disclosed in CN110452115A; cited from earlier work
S. aureus = settings: disclosed in CN110452115A; cited from earlier work
C. albicans = settings: disclosed in CN110452115A; cited from earlier work

Row | Molecule | MIC [1] | Minimum inhibitory concentration MIC (agar method) [2] | other results
1 | COC(=O)C[C@@H](C)O [Embodiment 2-1, R-(−)-3-hydroxybutyric methyl ester] | 62.5 µg/mL (≈ 529 µM) | 10% | 
2 | CCOC(=O)C[C@@H](C)O [Embodiment 2-2, R-(−)-3-hydroxybutyrate ethyl ester] | 31.2 µg/mL (≈ 236 µM) | 5% | 
3 | CCCOC(=O)C[C@@H](C)O [Embodiment 2-3, R-(−)-3-hydroxybutyrate propyl ester] | 15.6 µg/mL (≈ 107 µM) | 2% | 
4 | CCCCOC(=O)C[C@@H](C)O [Embodiment 2-4, R-(−)-3-hydroxybutyrate butyl ester] | 7.81 µg/mL (≈ 48.7 µM) | 1% | 
5 | CCCCCOC(=O)C[C@@H](C)O [Embodiment 2-5, R-(−)-3-hydroxybutyrate pentyl ester] | 3.91 µg/mL (≈ 22.4 µM) | 0.5% | 
6 | CCCCCCOC(=O)C[C@@H](C)O [Embodiment 2-6, R-(−)-3-hydroxybutyrate hexyl ester] | 1.95 µg/mL (≈ 10.4 µM) | 0.25% | 
7 | CCCCCCCOC(=O)C[C@@H](C)O [Embodiment 2-7, R-(−)-3-hydroxybutyrate heptyl ester] | 31.2 µg/mL (≈ 154 µM) | >15% | 
8 | CCCCCCCCOC(=O)C[C@@H](C)O [Embodiment 2-8, R-(−)-3-hydroxybutyrate octyl ester] | 31.2 µg/mL (≈ 144 µM) | >20% | 
9 | CCCCCCOC(=O)[C@@H](C)O [Embodiment 3-1, R-(−)-lactate hexyl ester] | 1.95 µg/mL (≈ 11.2 µM) | 0.25% | 
10 | CCOC(=O)[C@@H](C)O [Embodiment 3-2, R-(−)-lactate ethyl ester] | 35.5 µg/mL (≈ 301 µM) | 5.25% | 
11 | CCCCCCCOC(=O)[C@@H](C)O [Embodiment 3-3, R-(−)-lactate heptyl ester] | 28.6 µg/mL (≈ 152 µM) | 4.38% | 
12 | R-(−)-3-hydroxybutyrate ethyl ester oligomer [Embodiment 1-3] |  |  | Anti-bacterial rate (%) [3]: 99%
13 | poly-3-hydroxybutyrate oligomer |  |  | minimum inhibitory concentration (MIC) (K. pneumoniae): 12500 µg/mL; minimum inhibitory concentration (MIC) (S. aureus): 6250 µg/mL; minimum inhibitory concentration (MIC) (C. albicans): 25000 µg/mL
